Consider six molecules from patent US20190092802A1, “ANTAGONISTS OF NK1 RECEPTORS DERIVED FROM CARBOHYDRATES, PRODUCTION METHOD AND MEDICAL USE” (CONSEJO SUPERIOR DE INVESTIGACIONES CIENTIFICAS (CSIC), priority 2015, published 2019).

Entries after “also recorded” stand apart in the source; their conditions may differ.

The target in experiment [1] is T1, NK1 receptor (Homo sapiens, UniProt P25103). The experiment is described as follows: Displacement of marked SP ([125I]BH-SP). Conditions: Concentration 6.0E−05 M; marked SP 0.15 nM, 60 minutes at room temperature. The format is binding.
Target sequence in this assay (P25103 whole entry): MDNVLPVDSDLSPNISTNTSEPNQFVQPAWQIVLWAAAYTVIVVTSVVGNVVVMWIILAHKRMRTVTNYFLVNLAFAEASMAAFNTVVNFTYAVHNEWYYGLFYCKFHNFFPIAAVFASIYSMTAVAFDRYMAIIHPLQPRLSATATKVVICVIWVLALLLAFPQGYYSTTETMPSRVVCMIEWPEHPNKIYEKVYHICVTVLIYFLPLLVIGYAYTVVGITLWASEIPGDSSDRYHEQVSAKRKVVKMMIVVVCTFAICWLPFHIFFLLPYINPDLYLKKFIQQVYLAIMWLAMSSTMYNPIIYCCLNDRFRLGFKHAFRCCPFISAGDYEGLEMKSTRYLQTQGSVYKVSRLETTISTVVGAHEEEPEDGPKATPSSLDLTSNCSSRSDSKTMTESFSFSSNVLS
Experiment [2] addresses T1, NK1 receptor. The experiment is described as follows: IP-One assay (SP-induced IP1 accumulation in CHO cells transfected with NK1). The format is cell-based. Also noted: expressed in transfected cells; host or cells: CHO cells, transient electroporation. As to the method:
Non-essential amino acids were also added to the medium (Invitrogen).
Transient transfection of the cell lines was carried out by electroporation in a volume of 300 μL with a total of 10 μg DNA (pRK5 Neo-NK1 wild type) plasmid (using up to 500 ng of pRK5como carrier DNA to achieve 10 μg) and with 10^7 cells in the electroporation buffer (50 mM K2HPO4, 20 mM CH3COOK, 20 mM KOH and 26 mM MgSO4, pH 7.4). After electroporation (280 V, 1 mF, GeneZapper 450/2500; IBI, New Haven, Conn., USA), the cells were suspended in a complete medium and seeded on well culture plates with a density of 10^5 per well. The 96-well culture plates were first covered with polyornithine diluted in PBS, then incubated at 37° C. for 30 minutes and they were then washed with PBS before being seeded.
The activation and inhibition of the route of the IP by the NK1 receptor agonists and antagonists, respectively, was determined using the dynamic IP-One kit (Cisbio Bioassays, Bagnols-sur-Cèze, France). After transfection, 10^5 cells were distributed in 100 pll of a complete medium into a 96-well assay plate (Greiner Bio-One, Courtaboeuf, France). After 24 hours, the medium was eliminated and replaced by 40 μl of an incubation medium that contained the agonist and/or antagonist in an appropriate concentration.
Target sequence in this assay (P25103 whole entry, species assumed): as the sequence (P25103 whole entry) above

In experiment [3] the test system is A549 human cells from lung adenocarcinoma. The experiment in a line: MTT cell viability assay, A549. Type of experiment: cell-based. The note with it: for IC50: A549, 48 hours exposure, MTT; for anticancer activity against the cancer line (in words): A549 lung cancer cells. (In general: Tetrazolium assays rely on reduction of a dye to a coloured formazan, in cell work by metabolically active cells.)

The test system of experiment [4] is MRC5 non-malignant human lung cells. The experiment is described as follows: MTT cell viability assay, MRC-5. The format is cell-based.
The mark [5] stands for this setting: Homo sapiens, MRC5, MRC-5, 48 hours exposure.

Usually IC50 stands for the concentration needed to halve the response being measured.

Consider `C[C@@H](O[C@H]1OC[C@@H]2OC(C)(C)O[C@@H]2[C@H]1OCc1ccc(F)cc1)c1cc(C(F)(F)F)cc(C(F)(F)F)c1` [Compound 8], for which the “% Inhibition of the control specific affinity” value in experiment [1] is recorded as at least 100%.
`CC(=O)N[C@@H](Cc1c[nH]c2ccccc12)C(=O)OCc1cc(C(F)(F)F)cc(C(F)(F)F)c1` [L-732,138, reference compound]: the Kinact in experiment [2] (inhibition of substance P (SP), dose-response curves, IP-One assay) is on record as 8.37E−08±2.63 M. The same molecule registered an SP inhibition in experiment [2] (ligand concentration of 10^−6M) of 69%.
`C[C@@H](O[C@H]1OCCN(Cc2n[nH]c(=O)[nH]2)[C@H]1c1ccc(F)cc1)c1cc(C(F)(F)F)cc(C(F)(F)F)c1` [Aprepitant, reference compound]: the IC50 in experiment [3] (Homo sapiens) was found to be 15.7 ± 3.46 µM; in experiment [4] (setting [5]) it was 22.1 ± 6.92 µM.
With `C[C@@H](O[C@H]1O[C@@H]2CO[C@@H](c3ccccc3)O[C@@H]2[C@H](O)[C@H]1OCc1ccc(F)cc1)c1cc(C(F)(F)F)cc(C(F)(F)F)c1` [Compound 2, (R)-{1-[3,5-bis-(trifluoromethyl)phenyl]ethyl} 2-O-p-fluorobenzyl-(R)-[4,5-O-benzylidene]-α-D-galactopyranoside], the “% Inhibition of the control specific affinity” value in experiment [1] is at least 100%. In experiment [3], the “anticancer activity against the cancer line (in words)” value is “most active; also recorded: matches those of cisplatin”. The IC50 in experiment [3] (Homo sapiens) stood at 19.3 ± 7.93 µM; in experiment [4] (setting [5]), 120 ± 3.45 µM. Besides, the “NK1 receptor antagonist activity (in words)” value in experiment [2] (IP-One assay, inhibition of SP activity) is “excellent inhibitors of SP activity; also recorded: greatest antagonist activity”.
For the molecule `COc1ccccc1CN[C@H]1C2CCN(CC2)[C@H]1C(c1ccccc1)c1ccccc1` [CP-96345, reference compound], the IC50 in experiment [3] (Homo sapiens) worked out at 46.8 ± 8.89 µM; in experiment [4] (setting [5]), 57.9 ± 8.07 µM.
Regarding “(R)-{1-[3,5-bis-(trifluoromethyl)phenyl]ethyl} 2-O-p-fluorobenzyl-(R)-[4,5-O-benzylidene]-β-D-D-galactopyranoside [Compound 1]”, in experiment [3], the 50% inhibitory concentration (IC50) worked out at 28 ± 6.85 µM and the “anticancer activity against the cancer line (in words)” value was “most active”. The same molecule displayed an IC50 in experiment [4] (MRC-5, 48 hours exposure) of 141 ± 1.82 µM.
